Results on 19 compounds are retold here after US20260250250A1, “3-(SULPHONYL OR SULFONIMIDOYL)PROP-2-EN-1-YL]-2-OXO-1,2-DIHYDROPYRIDINE-3-CARBOXAMIDE DERIVATIVES” (Flinder Therapeutics B.V., priority 2022, published 2026).

pIC50: −log10 of the molar value. Some results are limits rather than exact numbers.

One assay has as its system NF-κB signaling pathway. Put plainly: Cell-based dual luciferase NF-κB reporter assay (HEK293 cells, TNF stimulated). The conditions noted are these: Homo sapiens, HEK293. Put shortly: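 HEK293 cells transfected with Firefly luciferase and NF-κB-response-element NanoLuc plasmids; compounds at 100–0.005 µM in 1% DMSO. Cells stimulated with 2.5 ng/mL TNF 30 min after compound addition. Firefly and NanoLuc activities read after 6 h by Nano-Glo dual-luciferase detection.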
(In a reporter assay the amount or activity of a reporter protein is the signal.)

Assay [1] deals with bladder carcinoma RT4 cell line. Put plainly: TNF-α-induced cytotoxicity assay (CellTiter-Glo viability). It is filed as cell-based. The conditions noted are these: Homo sapiens, RT-4, 72 h. Put shortly: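 RT4 bladder carcinoma cells, 1000 per well, stimulated with 1.25 ng/mL TNFα together with compound for 72 h at 37° C., 5% CO2. Viability read by CellTiter-Glo luminescence, proportional to cellular ATP, as a measure of HOIP-dependent cytotoxicity.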
In general terms: In ATP-based viability assays light output follows the ATP content of the culture.

Assay [2] deals with T1, human E3 ubiquitin-protein ligase RNF31 (HOIP) (Homo sapiens, UniProt Q96EP0).
T1 sequence (Q96EP0 695-1072 limits assumed): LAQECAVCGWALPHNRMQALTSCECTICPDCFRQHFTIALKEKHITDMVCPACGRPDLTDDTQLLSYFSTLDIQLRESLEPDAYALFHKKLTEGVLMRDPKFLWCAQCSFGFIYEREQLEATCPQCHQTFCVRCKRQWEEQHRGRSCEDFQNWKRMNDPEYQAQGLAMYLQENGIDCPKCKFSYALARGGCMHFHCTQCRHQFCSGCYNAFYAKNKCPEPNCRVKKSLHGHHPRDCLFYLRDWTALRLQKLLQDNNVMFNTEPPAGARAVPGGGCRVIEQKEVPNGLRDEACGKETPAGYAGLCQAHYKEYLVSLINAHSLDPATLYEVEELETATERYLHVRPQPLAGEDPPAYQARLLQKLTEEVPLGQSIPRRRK
Put plainly: Cell-free HTRF-based HOIP inhibition assay. It counts as biochemical. Summed up: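 Recombinant human HOIP fragment (E. coli) preincubated with compounds (100-0.005 μM, 1% DMSO) and E1 for 1 h at 25° C. E2 and substrates then added; reaction 2.5 h at 25° C. HTRF read-out, excitation 337 nm, emissions 665/620 nm.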

The term pIC50 denotes the negative decadic logarithm of the IC50, by convention in mol/L. Read a high pIC50 as a low IC50.

Turning to `O=C(NC/C=C/S(=O)(=O)c1ccccc1)c1cc2c([nH]c1=O)CCN(C(=O)OC1CCCCC1)C2` [Example 90, cyclohexyl 3-{[(2E)-3-(benzenesulfonyl)prop-2-en-1-yl]carbamoyl}-2-oxo-1,2,5,6,7,8-hexahydro-1,6-naphthyridine-6-carboxylate], the negative-log IC50 (pIC50) with NF-κB signaling pathway was at least 6.00; in assay [1] it was at least 6.00; in assay [2], at least 7.00.
As to `CC(OC(=O)N1CCc2[nH]c(=O)c(C(=O)NC/C=C/S(=O)(=O)c3ccccc3)cc2C1)c1c(F)cccc1F` (stereo not drawn) [Example 91, 1-(2,6-difluorophenyl)ethyl 3-{[(2E)-3-(benzenesulfonyl)prop-2-en-1-yl]carbamoyl}-2-oxo-1,2,5,6,7,8-hexahydro-1,6-naphthyridine-6-carboxylate], the pIC50 (with NF-κB signaling pathway; in assay [1]; in assay [2]) was at least 6.00 each time.
On to `CC(=O)N1CCC(OC(=O)N2CCc3[nH]c(=O)c(C(=O)NC/C=C/S(=O)(=O)c4ccc(Cl)cc4)cc3C2)CC1` [Example 92, 1-acetylpiperidin-4-vi 3-{[(2E)-3-(4-chlorobenzenesulfonyl)prop-2-en-1-yl]carbamoyl}-2-oxo-1,2,5,6,7,8-hexahydro-1,6-naphthyridine-6-carboxylate], for which the pIC50 in the assay with NF-κB signaling pathway is at least 5.00; in assay [1], at least 4.00; in assay [2] it was at least 7.00.
The matching figures for `O=C(NC/C=C/S(=O)(=O)c1ccc(Cl)cc1)c1cc2c([nH]c1=O)CCN(C(=O)OCCF)C2` [Example 93, 2-fluoroethyl 3-{[(2E)-3-(4-chlorobenzenesulfonyl)prop-2-en-1-yl]carbamoyl}-2-oxo-1,2,5,6,7,8-hexahydro-1,6-naphthyridine-6-carboxylate]: at least 6.00, at least 6.00 and at least 7.00.
For `COCC(C)OC(=O)N1CCc2[nH]c(=O)c(C(=O)NC/C=C/S(=O)(=O)c3ccc(Cl)cc3)cc2C1` (stereo not drawn) [Example 94, 1-methoxypropan-2-yl 3-{[(2E)-3-(4-chlorobenzenesulfonyl)prop-2-en-1-yl]carbamoyl}-2-oxo-1,2,5,6,7,8-hexahydro-1,6-naphthyridine-6-carboxylate], the pIC50 with NF-κB signaling pathway is at least 6.00; in assay [1] it was at least 5.00; in assay [2], at least 7.00.
In the case of `O=C(NC/C=C/S(=O)(=O)c1ccc(Cl)cn1)c1cc2c([nH]c1=O)CCN(C(=O)OCC1CC1)C2` [Example 95, cyclopropylmethyl 3-{[(2E)-3-[(5-chloropyridin-2-yl)sulfonyl]prop-2-en-1-yl]carbamoyl}-2-oxo-1,2,5,6,7,8-hexahydro-1,6-naphthyridine-6-carboxylate], the pIC50 in the assay on NF-κB signaling pathway was at least 6.00; in assay [1], at least 5.00; in assay [2], at least 7.00.
The matching figures for `O=C(NC/C=C/S(=O)(=O)c1ccc(Cl)cc1)c1cc2c([nH]c1=O)CCN(C(=O)OCC(F)F)C2` [Example 96, 2,2-difluoroethyl 3-{[(2E)-3-(4-chlorobenzenesulfonyl)prop-2-en-1-yl]carbamoyl}-2-oxo-1,2,5,6,7,8-hexahydro-1,6-naphthyridine-6-carboxylate]: at least 6.00, at least 5.00 and at least 6.00.
For `O=C(NC/C=C/S(=O)(=O)c1ccc(Cl)cc1)c1cc2c([nH]c1=O)CCN(C(=O)OCC(F)(F)F)C2` [Example 97, 2,2,2-trifluoroethyl 3-{[(2E)-3-(4-chlorobenzenesulfonyl)prop-2-en-1-yl]carbamoyl}-2-oxo-1,2,5,6,7,8-hexahydro-1,6-naphthyridine-6-carboxylate], the figures for the pIC50 (with NF-κB signaling pathway; in assay [1]; in assay [2]) were at least 6.00, at least 5.00 and at least 7.00, respectively.
As to `COc1ccc(S(=N)(=O)/C=C/CNC(=O)c2cc3c([nH]c2=O)CCN(C(=O)OCC2CC2)C3)cc1F` (stereo not drawn) [Example 98, cyclopropylmethyl 3-{[(2E)-3-[(3-fluoro-4-methoxyphenyl)(imino)oxo-λ^6-sulfanyl]prop-2-en-1-yl]carbamoyl}-2-oxo-1,2,5,6,7,8-hexahydro-1,6-naphthyridine-6-carboxylate], the pIC50 with NF-κB signaling pathway is at least 6.00; in assay [1], at least 5.00; in assay [2] it was at least 7.00.
In the case of `CC(C)(C)NC(=O)N1CCc2[nH]c(=O)c(C(=O)NC/C=C/S(=O)(=O)c3ccc(Cl)cc3)cc2C1` [Example 99, N6-tert-butyl-N3-[(2E)-3-(4-chlorobenzenesulfonyl)prop-2-en-1-yl]-2-oxo-1,2,5,6,7,8-hexahydro-1,6-naphthyridine-3,6-dicarboxamide], the negative-log IC50 (pIC50) in the assay with NF-κB signaling pathway was at least 5.00; in assay [1] it was at least 5.00; in assay [2] it was at least 6.00.
`O=C(NC/C=C/S(=O)(=O)c1ccc(Cl)cc1)c1cc2c([nH]c1=O)CCN(C(=O)NCC1CC1)C2` [Example 100, N3-[(2E)-3-(4-chlorobenzenesulfonyl)prop-2-en-1-yl]-N6-(cyclopropylmethyl)-2-oxo-1,2,5,6,7,8-hexahydro-1,6-naphthyridine-3,6-dicarboxamide]: the pIC50 in the assay with NF-κB signaling pathway was at least 4.00; in assay [1], at least 4.00; in assay [2], at least 6.00.
With `O=C(NC/C=C/S(=O)(=O)c1ccc(Cl)cc1)c1cc2c([nH]c1=O)CCN(C(=O)NC1CC1)C2` [Example 101, N3-[(2E)-3-(4-chlorobenzenesulfonyl)prop-2-en-1-yl]-N6-cyclopropyl-2-oxo-1,2,5,6,7,8-hexahydro-1,6-naphthyridine-3,6-dicarboxamide], the negative-log IC50 (pIC50) in the assay with NF-κB signaling pathway is at least 4.00; in assay [1], at least 4.00; in assay [2], at least 6.00.
On to `COCCS(=O)(=O)N1CCc2[nH]c(=O)c(C(=O)NC/C=C/S(=O)(=O)c3ccccc3)cc2C1` [Example 103, N-[(2E)-3-(benzenesulfonyl)prop-2-en-1-yl]-6-(2-methoxyethanesulfonyl)-2-oxo-1,2,5,6,7,8-hexahydro-1,6-naphthyridine-3-carboxamide], for which the figures for the negative logarithm of the IC50 (pIC50) (in the assay with NF-κB signaling pathway; in assay [1]; in assay [2]) were at least 4.00, at least 4.00 and at least 6.00, respectively.
As to `O=C(NC/C=C/S(=O)(=O)c1ccccc1)c1cc2c([nH]c1=O)CCN(Cc1cccnc1)C2` [Example 104, N-[(2E)-3-(benzenesulfonyl)prop-2-en-1-yl]-2-oxo-6-[(pyridin-3-yl)methyl]-1,2,5,6,7,8-hexahydro-1,6-naphthyridine-3-carboxamide], the results for the pIC50 (in the assay with NF-κB signaling pathway; in assay [1]; in assay [2]) were at least 5.00, at least 5.00 and at least 6.00, respectively.
Regarding `CO[C@H]1CC[C@H](C(=O)N2CCc3[nH]c(=O)c(C(=O)NC/C=C/S(=O)(=O)c4ccccc4)cc3C2)CC1` [Example 107, N-[(2E)-3-(benzenesulfonyl)prop-2-en-1-yl]-2-oxo-6-[(1r,4r)-4-methoxycyclohexanecarbonyl]-1,2,5,6,7,8-hexahydro-1,6-naphthyridine-3-carboxamide], the results for the negative logarithm of the IC50 (pIC50) (in the assay on NF-κB signaling pathway; in assay [1]; in assay [2]) were at least 4.00, at least 4.00 and at least 6.00, respectively.
As for `O=C(NC/C=C/S(=O)(=O)c1ccccc1)c1cc2c([nH]c1=O)CCN(C(=O)C1CC1)C2` [Example 109, N-[(2E)-3-(benzenesulfonyl)prop-2-en-1-yl]-6-cyclopropanecarbonyl-2-oxo-1,2,5,6,7,8-hexahydro-1,6-naphthyridine-3-carboxamide], the pIC50 with NF-κB signaling pathway was at least 4.00; in assay [1], at least 4.00; in assay [2] it was at least 6.00.
As for `O=C(NC/C=C/S(=O)(=O)c1ccccc1)c1cc2c([nH]c1=O)CCN(C(=O)C13CCC(CC1)C3)C2` [Example 110, N-[(2E)-3-(benzenesulfonyl)prop-2-en-1-yl]-6-{bicyclo[2.2.1]heptane-1-carbonyl}-2-oxo-1,2,5,6,7,8-hexahydro-1,6-naphthyridine-3-carboxamide], the values for the pIC50 (with NF-κB signaling pathway; in assay [1]; in assay [2]) were at least 5.00, at least 5.00 and at least 6.00, respectively.
As to `O=C(NC/C=C/S(=O)(=O)c1ccccc1)c1cc2c([nH]c1=O)CCN(C(=O)c1cnn(-c3ccccc3)n1)C2` [Example 112, N-[(2E)-3-(benzenesulfonyl)prop-2-en-1-yl]-2-oxo-6-(2-phenyl-2H-1,2,3-triazole-4-carbonyl)-1,2,5,6,7,8-hexahydro-1,6-naphthyridine-3-carboxamide], the pIC50 was at least 5.00 with NF-κB signaling pathway, at least 5.00 in assay [1] and at least 6.00 in assay [2].
For the compound `O=C(NC/C=C/S(=O)(=O)c1ccccc1)c1cc2c([nH]c1=O)CCN(C(=O)C1CCOC1)C2` (stereo not drawn) [Example 113, N-[(2E)-3-(benzenesulfonyl)prop-2-en-1-yl]-2-oxo-6-(oxolane-3-carbonyl)-1,2,5,6,7,8-hexahydro-1,6-naphthyridine-3-carboxamide], the figures for the pIC50 (in the assay on NF-κB signaling pathway; in assay [1]; in assay [2]) were at least 4.00, at least 4.00 and at least 6.00, respectively.
